Measured values taken from patent US5698522A, “6-position modified decapeptide LHRH antagonists” (Abbott Laboratories, priority 1995, dated 1997).
Where a SMILES comes first, the peptide text is derived from it. Side-chain parts run from the residue outwards. [ ]: non-standard residue; d: D form. The star is where a group is joined. Shikimoyl = O=C(C1=C[C@@H](O)[C@@H](O)[C@H](O)C1)*; Quinoline4carbonyl = O=C(c1ccnc2ccccc12)*; dPhe(4-Cl) = N[C@H](Cc1ccc(Cl)cc1)C(=O)O; d2Nal = N[C@H](Cc1ccc2ccccc2c1)C(=O)O; Lys(iPr) = CC(C)NCCCC[C@H](N)C(=O)O; NMeY = CN[C@@H](Cc1ccc(O)cc1)C(=O)O; Thiophene2carbonyl = O=C(c1cccs1)*; hArg = N=C(N)NCCCC[C@H](N)C(=O)O; d3Pal = N[C@H](Cc1cccnc1)C(=O)O; Nicotinoyl = O=C(c1cccnc1)*; dOrn = NCCC[C@@H](N)C(=O)O; 2Furoyl = O=C(c1ccco1)*; Ava = NCCCCC(=O)O; azaGly = NNC(=O)O; βAla = NCCC(=O)O; Sar = CNCC(=O)O

Molecular target: T1, LHRH receptor (Rattus norvegicus, UniProt P30969)
T1 construct: endogenous in cells
T1 sequence (P30969 1-327): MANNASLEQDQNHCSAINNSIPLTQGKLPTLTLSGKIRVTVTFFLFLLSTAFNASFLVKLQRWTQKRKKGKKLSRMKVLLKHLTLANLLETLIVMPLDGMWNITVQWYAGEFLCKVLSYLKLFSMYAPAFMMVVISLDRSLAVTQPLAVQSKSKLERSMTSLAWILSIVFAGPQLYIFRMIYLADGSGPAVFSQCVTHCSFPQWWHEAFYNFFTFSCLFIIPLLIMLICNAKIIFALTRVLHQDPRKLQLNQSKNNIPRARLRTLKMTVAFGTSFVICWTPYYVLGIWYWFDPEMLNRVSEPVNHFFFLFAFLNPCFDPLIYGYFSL
Test: in vitro LHRH antagonist potency (pA2) against the agonist leuprolide
Assay type: cell-based
Conditions: negative logarithm of the antagonist concentration which shifts the response curve produced by the agonist leuprolide to two-fold higher concentration
Procedure, shortened: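 Functional antagonism against the agonist leuprolide. pA2 is the negative log of antagonist concentration that shifts the leuprolide response curve to twofold higher concentration.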

Row | Compound | Kb [pM]
1 | CC(=O)N[C@H](Cc1ccc2ccccc2c1)C(=O)N[C@H](Cc1ccc(Cl)cc1)C(=O)N[C@H](Cc1cccnc1)C(=O)N[C@@H](CO)C(=O)N(C)[C@@H](Cc1ccc(O)cc1)C(=O)N[C@H](CCCCNC(=O)CNC(=O)c1cccnc1)C(=O)N[C@@H](CC(C)C)C(=O)N[C@@H](CCCNC(=N)N)C(=O)N1CCC[C@H]1C(=O)N[C@H](C)C(N)=O [Example 10, NAc-D2Nal^1 -D4ClPhe^2 -D3Pal^3 -Ser^4 -NMeTyr^5 -DLys(N-epsilon-Gly-Nicotinyl)^6 -Leu^7 -Arg^8 -Pro^9 -DAla^10 NH2] (Ac-[d2Nal][dPhe(4-Cl)][d3Pal]S[NMeY][dK]([Gly-Nicotinoyl])LRP[dA]-NH2) | 5.01
2 | CC(=O)N[C@H](Cc1ccc2ccccc2c1)C(=O)N[C@H](Cc1ccc(Cl)cc1)C(=O)N[C@H](Cc1cccnc1)C(=O)N[C@@H](CO)C(=O)N(C)[C@@H](Cc1ccc(O)cc1)C(=O)N[C@H](CCCCNC(=O)[C@@H](CO)NC(=O)c1ccnc2ccccc12)C(=O)N[C@@H](CC(C)C)C(=O)N[C@@H](CCCNC(=N)N)C(=O)N1CCC[C@H]1C(=O)N[C@H](C)C(N)=O [Example 50e, NAc-D2Nal^1 -D4ClPhe^2 -D3Pal^3 -Ser^4 -NMeTyr^5 -DLys(N-epsilon-DSer-4-Quinolinyl)^6 -Leu^7 -Arg^8 -Pro^9 -DAla^10 NH2] (Ac-[d2Nal][dPhe(4-Cl)][d3Pal]S[NMeY][dK]([dS-Quinoline4carbonyl])LRP[dA]-NH2) | 28.8
3 | CC(=O)N[C@H](Cc1ccc2ccccc2c1)C(=O)N[C@H](Cc1ccc(Cl)cc1)C(=O)N[C@H](Cc1cccnc1)C(=O)N[C@@H](CO)C(=O)N(C)[C@@H](Cc1ccc(O)cc1)C(=O)N[C@H](CCCNC(=O)NNC(=O)c1ccco1)C(=O)N[C@@H](CC(C)C)C(=O)N[C@@H](CCCCNC(C)C)C(=O)N1CCC[C@H]1C(=O)N[C@H](C)C(N)=O [Example 52, NAc-D2-Nal^1 -D4ClPhe^2 -D3Pal^3 -Ser^4 -NMeTyr^5 -DOrn(N-epsilon-Azagly-2-Furoyl)^6 -Leu^7 -Lys(N-epsilon-Isopropyl)^8 -Pro^9 -DAla^10 NH2] (Ac-[d2Nal][dPhe(4-Cl)][d3Pal]S[NMeY][dOrn]([azaGly-2Furoyl])L[Lys(iPr)]P[dA]-NH2) | 15.5
4 | CC(=O)N[C@H](Cc1ccc2ccccc2c1)C(=O)N[C@H](Cc1ccc(Cl)cc1)C(=O)N[C@H](Cc1cccnc1)C(=O)N[C@@H](CO)C(=O)N(C)[C@@H](Cc1ccc(O)cc1)C(=O)N[C@H](CCCNC(=O)CNC(=O)C1=C[C@@H](O)[C@@H](O)[C@H](O)C1)C(=O)N[C@@H](CC(C)C)C(=O)N[C@@H](CCCNC(=N)N)C(=O)N1CCC[C@H]1C(=O)N[C@H](C)C(N)=O [Example 49c, NAc-D2Nal^1 -D4ClPhe^2 -D3Pal^3 -Ser^4 -NMeTyr^5 -DOrn(N-epsilon-Gly-Shikimyl)^6 -Leu^7 -Arg^8 -Pro^9 -DAla^10 NH2] (Ac-[d2Nal][dPhe(4-Cl)][d3Pal]S[NMeY][dOrn]([Gly-Shikimoyl])LRP[dA]-NH2) | 42.7
5 | CC(=O)N[C@H](CO)C(=O)NCCCC[C@@H](NC(=O)[C@H](Cc1ccc(O)cc1)N(C)C(=O)[C@H](CO)NC(=O)[C@@H](Cc1cccnc1)NC(=O)[C@@H](Cc1ccc(Cl)cc1)NC(=O)[C@@H](Cc1ccc2ccccc2c1)NC(C)=O)C(=O)N[C@@H](CC(C)C)C(=O)N[C@@H](CCCCNC(=N)N)C(=O)N1CCC[C@H]1C(=O)N[C@H](C)C(N)=O [Example 13, NAc-D2Nal^1 -D4ClPhe^2 -D3Pal^3 -Ser^4 -NMeTyr^5 -DLys(N-epsilon-DSer-Acetyl)^6 -Leu^7 -Harg^8 -Pro^9 -DAla^10 NH2] (Ac-[d2Nal][dPhe(4-Cl)][d3Pal]S[NMeY][dK]([dS-Ac])L[hArg]P[dA]-NH2) | 7.94
6 | CC(=O)N[C@H](Cc1ccc2ccccc2c1)C(=O)N[C@H](Cc1ccc(Cl)cc1)C(=O)N[C@H](Cc1cccnc1)C(=O)N[C@@H](CO)C(=O)N(C)[C@@H](Cc1ccc(O)cc1)C(=O)N[C@H](CCCCNC(=O)CCNC(=O)CNC(=O)c1ccco1)C(=O)N[C@@H](CC(C)C)C(=O)N[C@@H](CCCCNC(C)C)C(=O)N1CCC[C@H]1C(=O)N[C@H](C)C(N)=O [Example 57c, NAc-D2Nal^1 -D4ClPhe^2 -D3Pal^3 -Ser^4 -NMeTyr^5 -DLys(N-epsilon-beta-alanyl-glycyl-furoyl)^6 -Leu^7 -Lys(Isp)^8 -Pro^9 -DAla^10 NH2] (Ac-[d2Nal][dPhe(4-Cl)][d3Pal]S[NMeY][dK]([βAla-Gly-2Furoyl])L[Lys(iPr)]P[dA]-NH2) | 18.6
7 | CC(=O)N[C@H](Cc1ccc2ccccc2c1)C(=O)N[C@H](Cc1ccc(Cl)cc1)C(=O)N[C@H](Cc1cccnc1)C(=O)N[C@@H](CO)C(=O)N(C)[C@@H](Cc1ccc(O)cc1)C(=O)N[C@H](CCCCNC(=O)NNC(=O)c1cccs1)C(=O)N[C@@H](CC(C)C)C(=O)N[C@@H](CCCCNC(C)C)C(=O)N1CCC[C@H]1C(=O)N[C@H](C)C(N)=O [Example 5b, NAc-D2Nal^1 -D4ClPhe^2 -D3Pal^3 -Ser^4 -NMeTyr^5 -DLys(N-epsilon-Azagly-2-Thienylcarbonyl)^6 -Leu^7 -Lys(N-epsilon-Isopropyl)^8 -Pro^9 -DAla^10 NH2] (Ac-[d2Nal][dPhe(4-Cl)][d3Pal]S[NMeY][dK]([azaGly-Thiophene2carbonyl])L[Lys(iPr)]P[dA]-NH2) | 2.95
8 | CC(=O)N[C@H](Cc1ccc2ccccc2c1)C(=O)N[C@H](Cc1ccc(Cl)cc1)C(=O)N[C@H](Cc1cccnc1)C(=O)N[C@@H](CO)C(=O)N(C)[C@@H](Cc1ccc(O)cc1)C(=O)N[C@H](CCCCNC(=O)CNC(=O)CNC(=O)c1cccnc1)C(=O)N[C@@H](CC(C)C)C(=O)N[C@@H](CCCCNC(C)C)C(=O)N1CCC[C@H]1C(=O)N[C@H](C)C(N)=O [Example 19c, NAc-D2Nal^1 -D4ClPhe^2 -D3Pal^3 -Ser^4 -NMeTyr^5 -DLys[N-epsilon-Gly-Gly-Nicotinyl]^6 -Leu^7 -Lys(N-epsilon-Isopropyl)^8 -Pro^9 -DAla^10 NH2] (Ac-[d2Nal][dPhe(4-Cl)][d3Pal]S[NMeY][dK]([Gly-Gly-Nicotinoyl])L[Lys(iPr)]P[dA]-NH2) | 3.31
9 | CC(=O)N[C@H](Cc1ccc2ccccc2c1)C(=O)N[C@H](Cc1ccc(Cl)cc1)C(=O)N[C@H](Cc1cccnc1)C(=O)N[C@@H](CO)C(=O)N(C)[C@@H](Cc1ccc(O)cc1)C(=O)N[C@H](CCCCNC(=O)NNC(=O)c1ccco1)C(=O)N[C@@H](CC(C)C)C(=O)N[C@@H](CCCCNC(C)C)C(=O)N1CCC[C@H]1C(=O)N[C@H](C)C(N)=O [Example 2, NAc-D2Nal^1 -D4ClPhe^2 -D3Pal^3 -Ser^4 -NMeTyr^5 -DLys(N-epsilon-Azagly-2-Furoyl)^6 -Leu^7 -Lys(N-epsilon-Isopropyl)^8 -Pro^9 -DAla^10 NH2] (Ac-[d2Nal][dPhe(4-Cl)][d3Pal]S[NMeY][dK]([azaGly-2Furoyl])L[Lys(iPr)]P[dA]-NH2) | 1.41
10 | CC(=O)N[C@H](Cc1ccc2ccccc2c1)C(=O)N[C@H](Cc1ccc(Cl)cc1)C(=O)N[C@H](Cc1cccnc1)C(=O)N[C@@H](CO)C(=O)N(C)[C@@H](Cc1ccc(O)cc1)C(=O)N[C@H](CCCCNC(=O)CCNC(=O)C1=C[C@@H](O)[C@@H](O)[C@H](O)C1)C(=O)N[C@@H](CC(C)C)C(=O)N[C@@H](CCCNC(=N)N)C(=O)N1CCC[C@H]1C(=O)N[C@H](C)C(N)=O [Example 48g, NAc-D2Nal^1 -D4ClPhe^2 -D3Pal^3 -Ser^4 -NMeTyr^5 -DLys(N-epsilon-Beta-alanyl-Shikimyl)^6 -Leu^7 -Arg^8 -Pro^9 -DAla^10 NH2] (Ac-[d2Nal][dPhe(4-Cl)][d3Pal]S[NMeY][dK]([βAla-Shikimoyl])LRP[dA]-NH2) | 12.6
11 | CC(=O)N[C@H](Cc1ccc2ccccc2c1)C(=O)N[C@H](Cc1ccc(Cl)cc1)C(=O)N[C@H](Cc1cccnc1)C(=O)N[C@@H](CO)C(=O)N(C)[C@@H](Cc1ccc(O)cc1)C(=O)N[C@H](CCCCNC(=O)CCCCNC(=O)c1cccnc1)C(=O)N[C@@H](CC(C)C)C(=O)N[C@@H](CCCCNC(C)C)C(=O)N1CCC[C@H]1C(=O)N[C@H](C)C(N)=O [Example 43, NAc-D2Nal^1 -D4ClPhe^2 -D3Pal^3 -Ser^4 -NMeTyr^5 -DLys(N-epsilon-5-Aminovaleryl-Nicotinyl)^6 -Leu^7 -Lys(N-epsilon-Isopropyl)^8 -Pro^9 -DAla^10 NH2] (Ac-[d2Nal][dPhe(4-Cl)][d3Pal]S[NMeY][dK]([Ava-Nicotinoyl])L[Lys(iPr)]P[dA]-NH2) | 8.51
12 | CC(=O)N[C@H](Cc1ccc2ccccc2c1)C(=O)N[C@H](Cc1ccc(Cl)cc1)C(=O)N[C@H](Cc1cccnc1)C(=O)N[C@@H](CO)C(=O)N(C)[C@@H](Cc1ccc(O)cc1)C(=O)N[C@H](CCCCNC(=O)CN(C)C(=O)c1cccnc1)C(=O)N[C@@H](CC(C)C)C(=O)N[C@@H](CCCCNC(C)C)C(=O)N1CCC[C@H]1C(=O)N[C@H](C)C(N)=O [Example 4d, NAc-D2Nal^1 -D4ClPhe^2 -D3Pal^3 -Ser^4 -NMeTyr^5 -DLys(N-epsilon-Sar-Nicotinyl)^6 -Leu^7 -Lys(N-epsilon-Isopropyl)^8 -Pro^9 -DAla^10 NH2] (Ac-[d2Nal][dPhe(4-Cl)][d3Pal]S[NMeY][dK]([Sar-Nicotinoyl])L[Lys(iPr)]P[dA]-NH2) | 13.8
13 | CC(=O)N[C@H](CO)C(=O)NCCCC[C@@H](NC(=O)[C@H](Cc1ccc(O)cc1)N(C)C(=O)[C@H](CO)NC(=O)[C@@H](Cc1cccnc1)NC(=O)[C@@H](Cc1ccc(Cl)cc1)NC(=O)[C@@H](Cc1ccc2ccccc2c1)NC(C)=O)C(=O)N[C@@H](CC(C)C)C(=O)N[C@@H](CCCNC(=N)N)C(=O)N1CCC[C@H]1C(=O)N[C@H](C)C(N)=O [Example 8, NAc-D2Nal^1 -D4ClPhe^2 -D3Pal^3 -Ser^4 -NMeTyr^5 -DLys(N-epsilon-DSer-Acetyl)^6 -Leu^7 -Arg^8 -Pro^9 -DAla^10 NH2] (Ac-[d2Nal][dPhe(4-Cl)][d3Pal]S[NMeY][dK]([dS-Ac])LRP[dA]-NH2) | 7.94
